Key:
TRPM6-(1730–end) = molecular target: T1, TRPM6-(1730–end) (Homo sapiens, UniProt Q9BX84); test: Kinase activation assay (MBP substrate), TRPM6-(1730–end); type: biochemical; conditions: FLAG-tagged TRPM6-(1730–end) immunoprecipitated from HEK-293; MBP 1 μg, 0.1 mM [γ-32P]ATP, 10 mM MgCl2, 30 min at 30°C; increasing peptide concentrations; read-out: half-maximal activation
T1 construct: expressed in transfected cells; host or cells: HEK-293
T1 sequence (Q9BX84 1730-2022 limits assumed): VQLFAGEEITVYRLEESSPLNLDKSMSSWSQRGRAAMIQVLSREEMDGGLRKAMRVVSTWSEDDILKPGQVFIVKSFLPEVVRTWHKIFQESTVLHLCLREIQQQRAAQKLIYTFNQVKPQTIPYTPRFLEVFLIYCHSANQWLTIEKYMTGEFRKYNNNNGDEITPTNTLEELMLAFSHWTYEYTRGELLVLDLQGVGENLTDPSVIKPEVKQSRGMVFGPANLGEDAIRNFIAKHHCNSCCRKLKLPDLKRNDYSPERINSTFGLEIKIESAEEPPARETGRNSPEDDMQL
Protocol: In assays using E. coli-expressed TRPM6, reactions were set up in a volume of 20 μl, with substrate MBP (myelin basic protein) at 1 μg and kinase at 0.1–10 μg in buffer A containing 0.1% 2-mercaptoethanol, 10 mM MgCl2 and 0.1 mM [γ-^32P]ATP (~1000 cpm·pmol^−1). Assays were carried out for 30 min at 30°C with shaking at 1000 rev./min and terminated by addition of SDS sample buffer. […] Proteins were detected by Coomassie Blue staining and gels were imaged using an Epson scanner and dried completely using a gel dryer (Bio-Rad Laboratories). Incorporation of [γ-^32P]ATP into substrates was analysed by autoradiography using Hyperfilm (GE Healthcare) or quantified by Cerenkov counting.
Figure 2 Identification of dimerization motif residues in TRPM6 (A) Structural model of TRPM7 α-kinase depicting the N-terminal non-catalytic α-helix of one monomer that interacts with the kinase segment of the other monomer. (B) Fluorescence polarization analysis of wild-type (WT) and mutant (Mut) dimerization motif peptides with E. coli-purified GST-tagged TRPM6-(1730–end). […] The samples were analysed by immunoblotting with anti-GST antibody (top panel). […] Proteins were separated by SDS/PAGE, stained with Coomassie Blue (top and middle gels) and MBP phosphorylation was detected by autoradiography (bottom gel). […] The pull-down samples were analysed by immunoblotting with anti-FLAG antibody (top panel). […]

[1] = molecular target: T2, GST-tagged TRPM6-(1730–end) (Homo sapiens, UniProt Q9BX84); test: Fluorescence polarization binding assay, TRPM6-(1730–end); conditions: 100 nM labelled peptide, increasing concentrations of TRPM6-(1730–end), pH 7.5, room temperature
T2 construct: E. coli-purified GST-tagged TRPM6-(1730–end); made in house; host or cells: E. coli BL21
T2 sequence (Q9BX84 1730-2022 limits assumed): T1 sequence (Q9BX84 1730-2022 limits assumed)
Protocol: The peptides used for the assay contained a C-terminal linker leading to the peptides […] (wild-type) and […] (mutant). The peptides were labelled with Lumio Green (Invitrogen) following the manufacturer's protocol. Fluorescence polarization measurements were performed at room temperature in buffer containing 25 mM Tris/HCl (pH 7.5), 200 mM NaCl and 5 mM 2-mercaptoethanol. Binding assays were performed by combining 100 nM labelled peptide with increasing concentrations of TRPM6 kinase, in a total volume of 30 μl of buffer, and end-point polarization measurements were made using the BMG PheraStar plate reader. The polarization values were measured at an excitation wavelength of 485 nm and an emission wavelength of 538 nm, and were corrected for fluorescent probe alone. At least ten data points were measured for each curve, and each data point was measured in duplicate. Data were analysed using GraphPad Prism 5 and curve-fitting of the data from two independent experiments was performed with one-site specific binding with Hill slope [model Y=BmaxX^h/(Kd^h+X^h)] to determine Kd values.
(Figure 2A). We next utilized fluorescence polarization technology, a sensitive method to evaluate interactions between proteins and peptides. […]

[2] = molecular target: T3, GST-tagged TRPM6-(1730–end), E. coli-purified, Q9BX84; test: fluorescence polarisation; conditions: chain shown with the change; read at the highest titration point, 2.5 µM TRPM6-(1730-end); parent: est. 94; read off a plot
T3 chain: T1 sequence (Q9BX84 1730-2022 limits assumed)

With `CC[C@H](C)[C@H](NC(=O)[C@H](C)NC(=O)[C@H](CO)NC(=O)[C@H](Cc1ccc(O)cc1)NC(=O)[C@H](Cc1c[nH]cn1)NC(=O)[C@H](Cc1c[nH]cn1)NC(=O)[C@H](Cc1c[nH]cn1)NC(=O)[C@@H]1CCCN1C(=O)[C@H](CCC(=O)O)NC(=O)[C@H](CCC(N)=O)NC(=O)[C@@H]1CCCN1C(=O)[C@H](CO)NC(=O)[C@H](CCCCN)NC(=O)[C@@H](N)CC(C)C)C(=O)N[C@@H](CCC(=O)O)C(=O)N[C@@H](CCCNC(=N)N)C(=O)N[C@@H](CC(N)=O)C(=O)N[C@@H](CC(N)=O)C(=O)N[C@@H](CC(C)C)C(=O)N[C@@H](CCSC)C(=O)N[C@@H](CCCNC(=N)N)C(=O)N[C@@H](CC(C)C)C(=O)N[C@@H](CO)C(=O)N[C@@H](CCC(N)=O)C(=O)N[C@H](C(=O)N[C@H](C(=O)N1CCC[C@H]1C(=O)N[C@@H](Cc1ccccc1)C(=O)N[C@H](C(=O)N1CCC[C@H]1C(=O)N[C@H](C(=O)N[C@@H](CCC(N)=O)C(=O)N[C@@H](CC(C)C)C(=O)N[C@@H](Cc1ccccc1)C(=O)N[C@@H](C)C(=O)NCC(=O)N[C@@H](CCC(=O)O)C(=O)N[C@@H](CCC(=O)O)C(=O)N[C@H](C(=O)N[C@H](C(=O)N[C@H](C(=O)O)C(C)C)[C@@H](C)O)[C@@H](C)CC)C(C)C)[C@@H](C)O)[C@@H](C)CC)[C@@H](C)O` [dimerization motif peptide] the EC50 (TRPM6-(1730–end)) was roughly 15 µM.

In the case of “LKSPQEPHHHYSAIERNNAMRASQTIPFTPVQLFAGEEITVGGCCPGCC [mutant dimerization motif peptide, mutant (L1718A+L1721A) dimerization motif peptide with C-terminal linker, labelled with Lumio Green]”, the “fluorescence polarization increase (binding)” value [1] is reported as “only background increases in fluorescence polarization were observed”.

LKSPQEPHHHYSAIERNNAMRASQTIPFTPVQLFAGEEITVGGCCPGCC showed a response [2] of 24 mP.

Source: PMC4019984, “Kinase and channel activity of TRPM6 are co-ordinated by a dimerization motif and pocket interaction” (Biochemical Journal, 2014)
